{
  "source": "patent US10676440B2",
  "about": "“Crystalline forms of an NK-1 antagonist” (Helsinn Healthcare SA, priority 2014, dated 2020)",
  "test": "in vivo",
  "conditions": "male, dog, in vivo, iv, 3 mg/kg, mean AUC(0-102 h)",
  "experimental": "In Example 10, the pharmacokinetics of the compound of Formula I in dogs following single intravenous and oral administration was evaluated and the oral bioavailability of five different salts of the compound of Formula I was compared. The compound of Formula I was administered to dogs as described in Table 12. The doses are expressed in mg of free base.\nThe experiments were performed in 15 male dogs (bodyweight 11-18 kg) from RCC Ltd., Biotechnology and Animal Breeding Division, Wolferstrasse 4, CH-4414, Fullinsdorf, Switzerland. The animals were housed under standard laboratory conditions throughout the study period.\nFor the pharmacokinetic studies, 1 mL blood samples were collected from the cephalic vein of the dogs via catheter at 15, 30 min and at 1, 2, 3, 4, 6, 8, 24, 32, 48, 56, 72, 80, 96, and 100 (or 104) hours following oral dosing. After intravenous administration, blood samples were collected at 5, 15, 30 min and 1, 2, 3, 4, 6, 8, 24, 32, 48, 56, 75, 102, 120, 128, 144, 152, 168, 176, 192, and 200 hours. Collection tubes contained EDTA/NaF as anticoagulant and stabilizer. After centrifugation, plasma was removed and stored deep frozen at approximately −20° C. until analysis using a specific LC-MS method.\nAliquots of 40 μL plasma were mixed with 50 μL buffer at pH 5, 50 μL internal standard of Formula I (1 μg/mL in 1-chlorobutane) and 250 μL butylacetate and then shaken for 10 min. After centrifugation, 200 μL of the supernatant were evaporated to dryness at 45° C. under a stream of nitrogen. The residue was reconstituted with 200 μL acetonitrile/1% formic acid in water (30/70, v/v). Aliquots of 30 μL were injected onto the analytical column (Waters, Symmetry C8, 2.1×150 mm, 5 μm).\nSeparation occurred by gradient elution using a solvent A (acetonitrile) and solvent B (1% formic acid in water). The flow rate was 0.3 mL/min and the gradient elution was: […]\nThe sample passed to the ion-spray interface of the single quadrupole mass spectrometer. Selected ion monitoring mode (SIM) was used for mass spectrometric detection. Quantification was based on peak area ratios and calibration curve established between 2 and 5000 ng/mL.\nTo a 100 μL sample aliquot were added 200 μL of a mixture of acetonitrile/ethanol containing the deuterated internal standard, to precipitate plasma proteins. After vortex mixing and centrifugation, aliquots of the supernatants were transferred to 96-deel-well plates and injected for analysis (5 μL). Following enrichment and cleanup on the trapping column, the analyte was eluted and separated by gradient elution on a 2.1*30 mm analytical column (XTerra MS C18). The effluent from the analytical column was passed to the turbo ion spray vie a divert valve.\nCalibration standards were prepared in dog plasma. The calibration range was from 10-5000 ng/mL. In each analytical series, a set of calibration standards was worked up and run with the unknowns. Calibration was then performed by computing a weighted (1/X^2) least-squares linear regression line of the measured peak area ratios (Y) (analyte to internal standard) versus the spiked concentrations (X). The drug concentrations of the unknown samples were then calculated from this regression line (UNICHROM). The performance of the analytical procedure during sample analysis was monitored. With each analytical series, quality control (QC) samples in dog plasma, spiked with known amounts of the analyte, were run together with the study samples.\nThe pharmacokinetic parameters were estimated by non-compartmental analysis, using the pharmacokinetic evaluation program WinNOnlin [1]. AUC(0-inf.) was calculated applying the linear trapezoidal rule and extrapolation to infinity using the apparent elimination rate constant kz and the calculated concentration at the last measurable time point. AUClast values were calculated by linear trapezoidal rule from time zero to time of last measureable time point.",
  "data": [
    {"smiles": "Cc1ccccc1-c1cc(N2CCN(C)CC2)ncc1N(C)C(=O)C(C)(C)c1cc(C(F)(F)F)cc(C(F)(F)F)c1", "note": "[Formula I, 2-(3,5-bis(trifluoromethyl)phenyl)-N,2-dimethyl-N-(6-(4-methylpiperazin-1-yl)-4-(o-tolyl)pyridin-3-yl)propanamide]", "values": [
      {"measurement": "AUC(0-t)", "result": 11800, "unit": "ng·h/mL"}
    ]}
  ]
}
